According to ChEMBL document CHEMBL1201862, “PubChem BioAssay data set” (2004):
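48-hour exposure; five concentrations; linearly interpolated endpoints. Here, GI50 denotes the concentration required for 50% inhibition of growth.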 The source made the active and inactive calls. Rule as the data show it: active = GI50 up to about 1.1 µM and inactive = higher.

Key:
Experiment in all cases: NCI-60 cell line screen, 48 h
786-0 = tested on: 786-0
ACHN = tested on: ACHN
BT-549 = tested on: BT-549
DU-145 = tested on: DU-145
HCT-15 = tested on: HCT-15
HOP-62 = tested on: HOP-62
Hs-578T = tested on: Hs-578T
LOX IMVI = tested on: LOX IMVI
MDA-MB-231 = tested on: MDA-MB-231
NCI-H23 = tested on: NCI-H23
OVCAR-3 = tested on: OVCAR-3
OVCAR-4 = tested on: OVCAR-4
SK-MEL-5 = tested on: SK-MEL-5
SK-OV-3 = tested on: SK-OV-3
SNB-19 = tested on: SNB-19
TK-10 = tested on: TK-10
UACC-257 = tested on: UACC-257
K562 = tested on: K562
RPMI-8226 = tested on: RPMI-8226
SR = tested on: SR

CCCCCC(=O)OCC1(CO)C/C(=C/CC(C(C)C)C(C)C)C(=O)O1 (stereo not drawn)
GI50 (786-0): 30.8 µM (inactive) | GI50 (ACHN): 58.5 µM (inactive) | GI50 (BT-549): > 75 µM (inactive) | GI50 (DU-145): 59.6 µM (inactive) | GI50 (HCT-15): 73.1 µM | GI50 (HOP-62): 38.7 µM (inactive) | GI50 (Hs-578T): 33.3 µM (inactive) | GI50 (LOX IMVI): 10.6 µM (inactive) | GI50 (MDA-MB-231): > 75 µM (inactive) | GI50 (NCI-H23): > 75 µM (inactive) | GI50 (OVCAR-3): 50 µM (inactive) | GI50 (OVCAR-4): 53.2 µM (inactive) | GI50 (SK-MEL-5): 48.8 µM (inactive) | GI50 (SK-OV-3): > 75 µM (inactive) | GI50 (SNB-19): 63.1 µM (inactive) | GI50 (TK-10): > 75 µM (inactive) | GI50 (UACC-257): > 75 µM (inactive)

O=c1c(Cc2ccc(Cl)cc2)nnc2sc(-c3ccc(-c4ccc(Cl)cc4Cl)o3)nn12
GI50 (786-0): 48 µM (inactive) | GI50 (ACHN): 52 µM (inactive) | GI50 (BT-549): > 100 µM (inactive) | GI50 (DU-145): 70 µM (inactive) | GI50 (HCT-15): 41.4 µM | GI50 (HOP-62): 43.2 µM (inactive) | GI50 (Hs-578T): > 100 µM (inactive) | GI50 (K562): 89.9 µM (inactive) | GI50 (LOX IMVI): 47.1 µM (inactive) | GI50 (MDA-MB-231): 93.3 µM (inactive) | GI50 (NCI-H23): 66.5 µM (inactive) | GI50 (OVCAR-3): 34 µM (inactive) | GI50 (OVCAR-4): 42.9 µM (inactive) | GI50 (RPMI-8226): > 100 µM (inactive) | GI50 (SK-MEL-5): > 100 µM (inactive) | GI50 (SK-OV-3): > 100 µM (inactive) | GI50 (SNB-19): 33.3 µM (inactive) | GI50 (TK-10): > 100 µM (inactive) | GI50 (UACC-257): > 100 µM (inactive)

CC(=O)O[C@H]1C[C@@H](OC(C)=O)[C@@](C)(O)[C@@H]2[C@@H](OC(C)=O)[C@@]3(O)[C@H](/C=C(/CCl)[C@H]4O[C@H]4[C@@H](OC(C)=O)[C@@]12C)OC(=O)[C@@H]3C
GI50 (786-0): > 25 µM (inactive) | GI50 (ACHN): > 25 µM (inactive) | GI50 (BT-549): > 25 µM (inactive) | GI50 (DU-145): > 25 µM (inactive) | GI50 (HCT-15): > 25 µM | GI50 (HOP-62): > 25 µM (inactive) | GI50 (Hs-578T): > 25 µM (inactive) | GI50 (K562): > 25 µM (inactive) | GI50 (LOX IMVI): 21.2 µM (inactive) | GI50 (MDA-MB-231): > 25 µM (inactive) | GI50 (NCI-H23): > 25 µM (inactive) | GI50 (OVCAR-3): > 25 µM (inactive) | GI50 (OVCAR-4): > 25 µM (inactive) | GI50 (RPMI-8226): 9.89 µM (inactive) | GI50 (SK-MEL-5): 22.3 µM (inactive) | GI50 (SK-OV-3): > 25 µM (inactive) | GI50 (SNB-19): > 25 µM (inactive) | GI50 (TK-10): > 25 µM (inactive) | GI50 (UACC-257): > 25 µM (inactive)

CC1=CC(=O)/C(=C/N2CCNC2=S)C(=O)O1
GI50 (786-0): > 100 µM (inactive) | GI50 (ACHN): > 100 µM (inactive) | GI50 (BT-549): > 100 µM (inactive) | GI50 (DU-145): > 100 µM (inactive) | GI50 (HCT-15): > 100 µM | GI50 (HOP-62): > 100 µM (inactive) | GI50 (Hs-578T): > 100 µM (inactive) | GI50 (K562): > 100 µM (inactive) | GI50 (LOX IMVI): > 100 µM (inactive) | GI50 (MDA-MB-231): > 100 µM (inactive) | GI50 (NCI-H23): > 100 µM (inactive) | GI50 (OVCAR-4): > 100 µM (inactive) | GI50 (RPMI-8226): > 100 µM (inactive) | GI50 (SK-MEL-5): 97.3 µM (inactive) | GI50 (SK-OV-3): > 100 µM (inactive) | GI50 (SNB-19): > 100 µM (inactive) | GI50 (TK-10): > 100 µM (inactive) | GI50 (UACC-257): > 100 µM (inactive)

COc1c(-c2ccc3c(c2)OCO3)oc2cc3c(c(OC)c2c1=O)OCO3 [MELITERNATIN]
GI50 (786-0): 48.2 µM (inactive) | GI50 (ACHN): 22.3 µM (inactive) | GI50 (BT-549): 12.8 µM (inactive) | GI50 (DU-145): 30.5 µM (inactive) | GI50 (HCT-15): 30.8 µM | GI50 (HOP-62): 15.4 µM (inactive) | GI50 (Hs-578T): 31.1 µM (inactive) | GI50 (K562): 23.8 µM (inactive) | GI50 (LOX IMVI): 11.6 µM (inactive) | GI50 (MDA-MB-231): 43 µM (inactive) | GI50 (NCI-H23): 22.8 µM (inactive) | GI50 (OVCAR-3): 22.4 µM (inactive) | GI50 (OVCAR-4): 24.2 µM (inactive) | GI50 (SK-MEL-5): 18.4 µM (inactive) | GI50 (SK-OV-3): 18.3 µM (inactive) | GI50 (SNB-19): 18.4 µM (inactive) | GI50 (TK-10): 25.5 µM (inactive) | GI50 (UACC-257): 38.5 µM (inactive)

O=C1CCCC[C@H]1C(O)CC1CC(=O)N(c2ccccc2)C(=O)C1 (stereo partly drawn)
GI50 (786-0): > 100 µM (inactive) | GI50 (ACHN): > 100 µM (inactive) | GI50 (BT-549): > 100 µM (inactive) | GI50 (DU-145): > 100 µM (inactive) | GI50 (HCT-15): > 100 µM | GI50 (HOP-62): > 100 µM (inactive) | GI50 (Hs-578T): > 100 µM (inactive) | GI50 (K562): > 100 µM (inactive) | GI50 (LOX IMVI): > 100 µM (inactive) | GI50 (MDA-MB-231): > 100 µM (inactive) | GI50 (NCI-H23): > 100 µM (inactive) | GI50 (OVCAR-3): > 100 µM (inactive) | GI50 (OVCAR-4): > 100 µM (inactive) | GI50 (RPMI-8226): > 100 µM (inactive) | GI50 (SK-MEL-5): > 100 µM (inactive) | GI50 (SNB-19): > 100 µM (inactive) | GI50 (SR): > 100 µM (inactive) | GI50 (TK-10): > 100 µM (inactive) | GI50 (UACC-257): > 100 µM (inactive)

O=C1C(C(c2ccccc2)N2CCOCC2)=C(O)C(c2ccccc2)N1c1ccccc1 (stereo not drawn)
GI50 (786-0): > 10 µM (inactive) | GI50 (ACHN): > 10 µM (inactive) | GI50 (BT-549): > 10 µM (inactive) | GI50 (DU-145): > 10 µM (inactive) | GI50 (HCT-15): > 10 µM | GI50 (HOP-62): > 10 µM (inactive) | GI50 (Hs-578T): > 10 µM (inactive) | GI50 (K562): > 10 µM (inactive) | GI50 (LOX IMVI): > 10 µM (inactive) | GI50 (MDA-MB-231): > 10 µM (inactive) | GI50 (NCI-H23): > 10 µM (inactive) | GI50 (OVCAR-3): > 10 µM (inactive) | GI50 (RPMI-8226): > 10 µM (inactive) | GI50 (SK-MEL-5): > 10 µM (inactive) | GI50 (SK-OV-3): > 10 µM (inactive) | GI50 (SNB-19): > 10 µM (inactive) | GI50 (TK-10): > 10 µM (inactive) | GI50 (UACC-257): > 10 µM (inactive)
